This is an account of results in US20080293712A1, “Benzo[C][2,7]Naphtyridine Derivatives, Methods of Making Thereof and Methods of Use Thereof” (WYETH, priority 2007, published 2008).

pIC50: −log10 of the molar value.

One test addresses PKA (Homo sapiens, UniProt P17612). Put plainly: PKA kinase inhibition, Z'-LYTE FRET assay. It counts as biochemical. As to conditions: 20 μM ATP.
A further test addresses T1, PDK-1 (Homo sapiens, UniProt O15530).
T1 sequence (O15530 1-556): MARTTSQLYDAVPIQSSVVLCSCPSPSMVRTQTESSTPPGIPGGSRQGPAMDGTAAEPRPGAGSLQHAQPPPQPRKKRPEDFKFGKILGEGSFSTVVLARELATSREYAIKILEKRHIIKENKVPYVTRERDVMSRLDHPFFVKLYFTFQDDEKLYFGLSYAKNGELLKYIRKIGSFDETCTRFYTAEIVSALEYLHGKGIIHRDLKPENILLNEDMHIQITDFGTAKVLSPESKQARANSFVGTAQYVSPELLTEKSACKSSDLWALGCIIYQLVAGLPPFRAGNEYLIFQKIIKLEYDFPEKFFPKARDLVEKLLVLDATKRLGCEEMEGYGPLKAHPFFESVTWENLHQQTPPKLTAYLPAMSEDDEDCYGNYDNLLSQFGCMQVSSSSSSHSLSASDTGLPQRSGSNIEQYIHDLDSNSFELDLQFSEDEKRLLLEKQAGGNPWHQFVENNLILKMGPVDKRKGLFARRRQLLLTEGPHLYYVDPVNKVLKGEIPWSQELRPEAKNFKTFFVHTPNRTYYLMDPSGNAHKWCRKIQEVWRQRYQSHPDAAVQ
The test is described as follows: PDK-1 kinase inhibition ELISA assay (phosphorylation of His6-tagged SGK1 S422D by PDK-1). In kind it is biochemical. The following applies: PDK-1 ELISA, Table 11; read-out: Average IC50.

Description for PKA: Z′-Lyte™ assay is an in vitro FRET-based assay that utilizes differential sensitivity of phosphorylated and non-phosphorylated peptides to proteolytic cleavage. The peptide substrate (also available from Invitrogen for each of PKA, Akt1 and S6K) is labeled with two different fluorophores, a fluorescence donor at one end of the peptide and a fluorescence acceptor at the other end of the peptide. In the primary kinase reaction, the kinase phosphorylates the peptide substrate in the presence of ATP. In the secondary reaction, a site-specific protease recognizes and cleaves non-phosphorylated peptides, but not phosphorylated peptides. Cleavage disrupts FRET between the donor and acceptor fluorophores on the peptide, whereas uncleaved phosphorylated peptides maintain FRET. Based on a formula that uses the ratio of donor emission (at 460 nm) to acceptor emission (at 535 nM) after excitation of the donor fluorophore at 400 nm, the extent of phosphorylation of the peptide substrates is calculated.

Take `COc1cc2c(cc1N1CCC(N3CCCC3)CC1)ncc1c(N)nc(-c3cccnc3C)cc12` [Ia-19, 9-methoxy-2-(2-methylpyridin-3-yl)-8-(4-pyrrolidin-1-ylpiperidin-1-yl)benzo[c]-2,7-naphthyridin-4-amine]: the pIC50 was less than 5.00 on PKA and less than 5.30 on PDK-1. Regarding `COc1cc2ncc3c(N)nc(-c4cccc(C(=O)NCc5cccnc5)c4)cc3c2cc1OC` [Ib-248, 3-(4-amino-8,9-dimethoxybenzo[c][2,7]naphthyridin-2-yl)-N-(pyridin-3-ylmethyl)benzamide], on PDK-1, the negative logarithm of the IC50 (pIC50) was 6.00. On to `COc1cc2ncc3c(N)nc(-c4ccc5[nH]ncc5c4)cc3c2cc1OC` [Ib-249, 2-(1H-indazol-5-yl)-8,9-dimethoxybenzo[c][2,7]naphthyridin-4-amine], for which, on PDK-1, the negative-log IC50 (pIC50) was 6.69.

In the case of `COc1cc2ncc3c(N)nc(-c4cc(F)cc(CCCN)c4)cc3c2cc1OC` [Ib-250, 2-(3-(3-Aminopropyl)-5-fluorophenyl)-8,9-dimethoxybenzo[c][2,7]naphthyridin-4-amine], the pIC50 at PDK-1 was 7.47. On the same count and under the same terms, the figure for `CC[C@@H](COc1cncc(-c2cc3c(cnc4cc(OC)c(OC)cc43)c(N)n2)c1)NC(=N)N` [Ib-251, (S)-1-(1-(5-(4-amino-8,9-dimethoxybenzo[c][2,7]naphthyridin-2-yl)pyridin-3-yloxy)butan-2-yl)guanidine] is 7.49; for `COc1cc2ncc3c(N)nc(-c4cncc(C#CCN)c4)cc3c2cc1OC` [Ib-252, 2-[5-(3-aminoprop-1-yn-1-yl)pyridin-3-yl]-8,9-dimethoxybenzo[c][2,7]naphthyridin-4-amine] it is 7.28. With `COc1cc2ncc3c(N)nc(-c4cncc(CCCN)c4)cc3c2cc1OC` [Ib-256, 2-[5-(3-aminopropyl)pyridin-3-yl]-8,9-dimethoxybenzo[c][2,7]naphthyridin-4-amine], the pIC50 at PDK-1 was 7.57. With `COc1cc2ncc3c(N)nc(-c4cncc(CCC(C)(C)N)c4)cc3c2cc1OC` [Ib-257, 2-[5-(3-amino-3-methylbutyl)pyridin-3-yl]-8,9-dimethoxybenzo[c][2,7]naphthyridin-4-amine], on PDK-1, the negative-log IC50 (pIC50) is 7.54. As for `COc1cc2ncc3c(N)nc(-c4cncc(CCC5(N)CCCCC5)c4)cc3c2cc1OC` [Ib-258, 2-{5-[2-(1-aminocyclohexyl)ethyl]pyridin-3-yl}-8,9-dimethoxybenzo[c][2,7]naphthyridin-4-amine], the pIC50 on PDK-1 was 7.57.

As for `C=CCOc1cncc(-c2cc3c(cnc4cc(OC)c(OC)cc43)c(N)n2)c1` [Ib-266, 2-(5-(Allyloxy)pyridin-3-yl)-8,9-dimethoxybenzo[c][2,7]naphthyridin-4-amine], the pIC50 at PDK-1 is 7.74. The same measure, in the same setting: the figure for `COc1cc2ncc3c(N)nc(-c4cncc(OCC(=O)c5ccccc5)c4)cc3c2cc1OC` [Ib-267, 2-{[5-(4-amino-8,9-dimethoxybenzo[c][2,7]naphthyridin-2-yl)pyridin-3-yl]oxy}-1-phenylethanone] is 6.10; for `CCCCNC(=N)c1cncc(-c2cc3c(cnc4cc(OC)c(OC)cc43)c(N)n2)c1` [Ib-268, 5-(4-Amino-8,9-dimethoxybenzo[c][2,7]naphthyridin-2-yl)-N-butylnicotinimidamide] it is 6.00; for `COc1cc2ncc3c(N)nc(-c4cncc(C(=N)NC(C)C)c4)cc3c2cc1OC` [Ib-269, 5-(4-Amino-8,9-dimethoxybenzo[c][2,7]naphthyridin-2-yl)-N-isopropylnicotin-imidamide] it is 6.22.

Consider `CCC(C)NC(=N)c1cncc(-c2cc3c(cnc4cc(OC)c(OC)cc43)c(N)n2)c1` (stereo not drawn) [Ib-270, 5-(4-Amino-8,9-dimethoxybenzo[c][2,7]naphthyridin-2-yl)-N-sec-butylnicotin-imidamide], for which, on PDK-1, the pIC50 was 6.22.
